The test system of data set [1] is AANAT. To be noted: 2-fluorohistidine replaces histidine; cited from earlier work.
In data set [2] the target is T1, GST-AANAT (Ovis aries, UniProt Q29495).
T1 construct: The entire open reading frame of the DNA encoding sheep AANAT in the plasmid vector pET15b; made in house; host or cells: Escherichia coli BL21(DE3)pLysS
The experiment in a line: Two-substrate steady state kinetics with GST-AANAT. The class given is biochemical, sheep. On the procedure:
DTNB Product Detection Assay
This assay is based on the detection of CoASH generated during acetyl transfer by reaction with the thiol reagent DTNB (19). […] Reactions were initiated with enzyme (3 μl, 5-30 nM final concentration) that had been prediluted (10-100 fold) in 50 mM sodium phosphate, 500 mM NaCl, 2 mM EDTA, and 0.05 mg/ml bovine serum albumin in the absence of reducing agent immediately before use and maintained on ice during the assay. The reactions were quenched for 0-3 min with 0.6 ml of a buffer containing guanidinium-HCl (3.2 M), sodium phosphate (0.1 M), pH 6.8. […] Background absorbances (with all components added including enzyme) were measured and subtracted from the total absorbance.
Two-Substrate Kinetic Measurements
Two substrate kinetic analysis was performed with substrate concentrations given in FIG. 3, and the data were fitted to the sequential (ternary complex) mechanism equation (Equation 2) using the computer program Kinet-Asyst II™ (IntelliKinetics, State College, Pa.) based on the algorithms of Cleland (20),
.upsilon.=Vm ·A·B/(Ka ·Kb
·Kma ·B+Kmb ·A+A·B)(Eq. 2)
using a nonlinear least squares approach.

Data set [3] concerns the target T1, GST-AANAT. The experiment in a line: Effect of DTNB on GST-AANAT activity. The class given is biochemical, sheep. On the procedure:
The potential difficulty with this approach was that reducing agents such as dithiothreitol and β-mercaptoethanol react with DTNB (Ellman's reagent). Indeed, GST-AANAT is somewhat unstable in the absence of reducing agents, losing greater than 50% activity within 2 h at 4° C. (data not shown). However, the enzyme was stable within the short incubation periods used in these studies (less than 3 min). It was shown unequivocally that CoASH generation was coupled tightly to N-acetyltryptamine formation, and the activity was linear with time and enzyme concentration.

The conditions of data set [4]: people; cited from earlier work.
Data set [5] concerns intracellular receptors for melatonin. As to conditions: intracellular orphan receptors vs G-protein family; cited from earlier work.

Where two headings read alike, the source gives them in different places.

We go through four molecules from patent US5990094A, “Inhibitors of sorotonin N-acetyltransferase” (The Rockefeller University, priority 1998, dated 1999).

T1 sequence (Q29495 other isoform, or with tags, fused parts or gaps): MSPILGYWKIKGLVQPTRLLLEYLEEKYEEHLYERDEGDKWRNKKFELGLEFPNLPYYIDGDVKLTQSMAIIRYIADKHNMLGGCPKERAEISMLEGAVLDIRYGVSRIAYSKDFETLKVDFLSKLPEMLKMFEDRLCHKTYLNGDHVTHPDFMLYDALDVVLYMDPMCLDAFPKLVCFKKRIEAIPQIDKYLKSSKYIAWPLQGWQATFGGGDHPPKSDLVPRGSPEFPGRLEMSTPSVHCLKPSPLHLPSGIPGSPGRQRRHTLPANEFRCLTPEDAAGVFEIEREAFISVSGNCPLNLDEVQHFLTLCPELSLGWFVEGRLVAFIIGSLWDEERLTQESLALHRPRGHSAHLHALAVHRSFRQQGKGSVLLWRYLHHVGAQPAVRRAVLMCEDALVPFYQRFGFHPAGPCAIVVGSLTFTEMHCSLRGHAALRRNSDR

As for `N[C@@H](Cc1c[nH]c(F)n1)C(=O)O` [2-fluorohistidine], the “induction of AANAT in the pineal” value in data set [1] is recorded as “induction of AANAT in the pineal is blocked”.

For `CC(=O)SCCNC(=O)CCNC(=O)[C@H](O)C(C)(C)COP(=O)(O)OP(=O)(O)OC[C@H]1O[C@@H](n2cnc3c(N)ncnc32)[C@H](O)[C@@H]1OP(=O)(O)O` [Acetyl-CoA, acetyl-CoA], the Kd stood at 509 ± 156 µM in data set [2] (ordered sequential mechanism, read-out: Kin (dissociation constant of the first binding substrate)) and 510 µM in data set [2] (read-out: dissociation constant (Kd)).

For the molecule `O=C(O)c1cc(SSc2ccc([N+](=O)[O-])c(C(=O)O)c2)ccc1[N+](=O)[O-]` [DTNB, 5,5'-dithiobis-(2-nitrobenzoic acid], the “effect on GST-AANAT activity” value in data set [3] is “inhibited GST-AANAT activity”.

Consider `COc1ccc2[nH]cc(CCNC(C)=O)c2c1` [Melatonin, 5-methoxy-N-acetyltryptamine], for which, in data set [4], the oral bioavailability variability is recorded as 25 fold range. The “Kd of binding and activation, higher compared to G-protein family receptors” value in data set [5] is listed as 10-100 fold.
